Experimental findings from ChEMBL document CHEMBL4842384 (J Med Chem, 2021) are described below.

The structures appear in SMILES notation. In brackets after ≈: the same amount, converted by molar mass.

Data set [1] in a line: Oral bioavailability in C57BL6 mouse at 30 mg/kg. The note with it: in vivo. The data set is classed as ADME, organism-based.
A short description of data set [2]: Aqueous solubility of compound at pH 1. The data set is classed as physicochemical. As to conditions: buffer.
A short description of data set [3]: Aqueous solubility of compound at pH 7.4. The data set is classed as physicochemical. As to conditions: buffer.
Data set [4] can be described thus: Permeability of compound at pH 5.5 by PAMPA assay. The data set is classed as ADME. As to conditions: for Papp: read-out: permeability. (In general: The PAMPA barrier holds no transporters, so it reflects passive diffusion.)
A short description of data set [5]: Permeability of compound at pH 7.4 by PAMPA assay. The data set is classed as ADME. As to conditions: for Papp: read-out: permeability.
Data set [6] in a line: Cmax in C57BL6 mouse at 30 mg/kg, po. The data set is classed as ADME, organism-based. The arrangement: route oral, dose 30 mg/kg. The note with it: in vivo.
Data set [7] can be described thus: AUC in C57BL6 mouse at 30 mg/kg, po. As to conditions: in vivo. The arrangement: dose 30 mg/kg. The data set is classed as ADME, organism-based.
Data set [8] is described as follows: Aqueous solubility of compound at pH 6.5. As to conditions: buffer. The data set is classed as physicochemical.

Usually bioavailability stands for dose-corrected exposure relative to a reference, in per cent. High values mean much systemic uptake, low ones little systemic uptake. A word on the solubility: it is how much of the substance goes into solution per volume. The low end stands for a poorly soluble substance, the high end for a readily soluble substance. As usually defined, the Cmax is the highest concentration seen after dosing. As usually defined, the AUC is concentration integrated over time. Turning to `Cc1ccc(C2=C(c3nnn[nH]3)C(=O)N[C@@](c3ccc(OCCCC(F)(F)F)cc3)(C(F)(F)F)C2)cc1` [BMS-963272], the bioavailability in data set [1] came out at 50%. The solubility in data set [2] was 11 µg/mL (≈ 20.9 µM); in data set [3] it was > 2450 µg/mL; in data set [8] it was 1180 µg/mL (≈ 2240 µM). Besides, the Papp in data set [4] was found to be 47.9 ×10⁻⁶ cm/s; in data set [5], 17.9 ×10⁻⁶ cm/s. The compound also returned a Cmax in data set [6] of 11 µM. In addition, in data set [7], the exposure (AUC) stood at 93 µM·h.

`Cc1ccc(C2=C(c3nnn[nH]3)C(=O)N[C@@](c3ccc(OCCCCCC(F)(F)F)cc3)(C(F)(F)F)C2)cc1`: the bioavailability in data set [1] worked out at 88%. Also, the solubility in data set [2] came to 1 µg/mL (≈ 1.81 µM); in data set [3], 1130 µg/mL (≈ 2050 µM); in data set [8] it was 332 µg/mL (≈ 600 µM). Also, the Papp in data set [4] was 46.6 ×10⁻⁶ cm/s; in data set [5], 34.1 ×10⁻⁶ cm/s. Besides, the Cmax in data set [6] turned out to be 4.3 µM. The AUC in data set [7] was 22 µM·h.

In data set [1], `COc1ccc(NC(=O)C2=C(c3ccc(C)cc3)C[C@](c3ccc(OCCCC(F)(F)F)cc3)(C(F)(F)F)NC2=O)cc1` yielded a bioavailability of 15%. The solubility in data set [2] and in data set [8] was < 1 µg/mL in each case. For the same compound, the permeability result in data set [4] and in data set [5] was “Nd(Insoluble)” in each case. Besides, the Cmax in data set [6] was determined as 0.16 µM. Moreover, the AUC in data set [7] stood at 1.1 µM·h.
